These compounds were tested on plasma estradiol (assay: Decreasing activity on blood estrogen (plasma estradiol, PMSG-treated rats)). Settings: Rattus norvegicus, po; 0.01 mg/kg orally, 4 hours after dosing; read-out: Ratio in plasma estradiol decrease.
Assay type: in vivo, female SD rats
Protocol: More specifically, pregnant mare serum gonadotropin (PMSG) was subcutaneously administered to female SD rats aged 3 weeks, at a dose of 200 IU/rat. […] Four hours after the dosing of the test compound, blood was sampled, and plasma estradiol was messuered by radioimmunoassay(RIA). The decreasing ratio (%) in plasma estradiol levels was calculated by comparing with control groups.

**Q.** Cn1nnc2ccc(Oc3ccc(I)cc3Cn3cncn3)cc21 [Example 46, 6-[4-Iodo-2-(1H-1,2,4-triazol-1-ylmethyl)phenoxy]-1-methyl-1H-benzotriazole] was tested. Which inhibition in vivo at 0.01 mg/kg did it give?
**A.** The inhibition in vivo at 0.01 mg/kg was 36%.

**Q.** For Cn1nnc2ccc(Oc3ccc([N+](=O)[O-])cc3Cn3cncn3)cc21 [Example 50, 1-methyl-6-[4-nitro-2-(1H-1,2,4-triazol-1-ylmethyl)phenoxy]-1H-benzotriazole], which inhibition in vivo at 0.01 mg/kg is on record?
**A.** The inhibition in vivo at 0.01 mg/kg was 59%.

Same assay, conditions: Rattus norvegicus, po; 0.1 mg/kg orally, 4 hours after dosing; read-out: Ratio in plasma estradiol decrease

**Q.** How did the inhibition in vivo at 0.1 mg/kg turn out when Cn1nnc2ccc(Oc3ccccc3Cn3cncn3)cc21 [Example 44, 1-methyl-6-[2-(1H-1,2,4-triazol-1-ylmethyl)phenoxy]-1H-benzotriazole] was run?
**A.** The inhibition in vivo at 0.1 mg/kg was 23%.

These compounds were tested against T1, aromatase from rat ovary (Rattus norvegicus, UniProt P22443) (assay: Inhibitory activity on aromatase from rat ovary). Settings: rat ovarian microsomes, 30 nM [1β-3H] androstenedione, pH 7.4, 37° C., 15 minutes; read-out: IC50 value.
T1 construct: Using as an enzyme sample the ovarian microsome fraction from a female rat; from tissue; host or cells: rat ovary, microsome fraction (female rat)
T1 sequence (P22443 1-508): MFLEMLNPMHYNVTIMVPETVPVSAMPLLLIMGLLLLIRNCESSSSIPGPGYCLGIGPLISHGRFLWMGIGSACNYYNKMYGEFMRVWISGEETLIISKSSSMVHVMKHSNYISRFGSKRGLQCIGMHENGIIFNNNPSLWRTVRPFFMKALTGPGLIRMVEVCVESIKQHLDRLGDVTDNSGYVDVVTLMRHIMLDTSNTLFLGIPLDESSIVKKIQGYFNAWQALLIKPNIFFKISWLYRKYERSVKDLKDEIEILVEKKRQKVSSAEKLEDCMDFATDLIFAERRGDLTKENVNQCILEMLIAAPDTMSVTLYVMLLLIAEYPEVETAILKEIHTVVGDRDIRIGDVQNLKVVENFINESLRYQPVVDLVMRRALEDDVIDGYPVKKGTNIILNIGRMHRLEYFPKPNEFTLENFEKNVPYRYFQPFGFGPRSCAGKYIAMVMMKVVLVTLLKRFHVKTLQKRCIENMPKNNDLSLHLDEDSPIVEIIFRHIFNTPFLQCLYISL
Assay type: biochemical

**Q.** How did the IC50 turn out when CCn1nnc2ccc(Oc3ccc(Cl)cc3Cn3cncn3)cc21 [Example 67, 6-[4-chloro-2-(1H-1,2,4-triazol-1-ylmethyl)phenoxy]-1-ethyl-1H-benzotriazole] was run?
**A.** Its IC50 is 0.6 nM.

**Q.** COc1ccc(Oc2ccc3nnn(C)c3c2)c(Cn2cncn2)c1 [Example 47, 6-[4-Methoxy-2-(1H-1,2,4-triazol-1-ylmethyl)phenoxy]-1-methyl-1H-benzotriazole] was tested. Which IC50 did it give?
**A.** Its IC50 is 1.6 nM.

**Q.** How did the IC50 turn out when Cn1nnc2ccc(Oc3ccc(I)cc3Cn3cncn3)cc21 [Example 46, 6-[4-Iodo-2-(1H-1,2,4-triazol-1-ylmethyl)phenoxy]-1-methyl-1H-benzotriazole] was run?
**A.** Its IC50 is 0.4 nM.

**Q.** How did the IC50 turn out when Cn1nnc2ccc(Oc3ccc(F)cc3Cn3cncn3)cc21 [Example 45, 6-[4-Fluoro-2-(1H-1,2,4-triazol-1-ylmethyl)phenoxy]-1-methyl-1H-benzotriazole] was run?
**A.** Its IC50 is 3.3 nM.

**Q.** Cn1nnc2ccc(Cc3ccc(Cl)cc3Cn3cncn3)cc21 [Example 79, 6-[4-chloro-2-(1H-1,2,4-triazol-1-ylmethyl)benzyl]-1-methyl-1H-benzotriazole] was tested. Which IC50 did it give?
**A.** Its IC50 is 0.7 nM.

**Q.** How did the IC50 turn out when Cn1nnc2ccc(Oc3ccc(C(F)(F)F)cc3Cn3cncn3)cc21 [Example 64, 6-[2-(1H-1,2,4-triazol-1-ylmethyl)-4-(trifluoromethyl)phenoxy]-1-methyl-1H-benzotriazole] was run?
**A.** The IC50 was 0.6 nM.

**Q.** With Cn1nnc2ccc(Oc3ccccc3Cn3cncn3)cc21 [Example 44, 1-methyl-6-[2-(1H-1,2,4-triazol-1-ylmethyl)phenoxy]-1H-benzotriazole] as the compound, how does the IC50 read?
**A.** The IC50 was 7.8 nM.

**Q.** How did the IC50 turn out when Cn1nnc2ccc(Oc3ccc([N+](=O)[O-])cc3Cn3cncn3)cc21 [Example 50, 1-methyl-6-[4-nitro-2-(1H-1,2,4-triazol-1-ylmethyl)phenoxy]-1H-benzotriazole] was run?
**A.** The IC50 was 0.5 nM.

**Q.** Which IC50 does the source give for Cn1nnc2ccc(Oc3ccc(C=O)cc3Cn3cncn3)cc21 [Example 53, 4-[6-(1-methyl-1H-benzotriazoyloxy)]-3-(1H-1,2,4-triazol-1-ylmethyl)benzaldehyde] here?
**A.** The IC50 was 0.8 nM.

**Q.** Which IC50 does the source give for C#Cc1ccc(Oc2ccc3nnn(C)c3c2)c(Cn2cncn2)c1 [Example 58, 6-[4-ethynyl-2-(1H-1,2,4-triazol-1-ylmethyl)phenoxy]-1-methyl-1H-benzotriazole] here?
**A.** Its IC50 is 0.3 nM.

**Q.** For Clc1ccc(Oc2cccc3ccccc23)c(Cn2ccnc2)c1 [Example 5, 1-[5-chloro-2-(1-naphthyloxy)benzyl]-1H-imidazole], which IC50 is on record?
**A.** Its IC50 is 6 nM.

**Q.** With CC(=O)c1ccc(Oc2ccc3nnn(C)c3c2)c(Cn2cncn2)c1 [Example 51, 4-[6-(1-methyl-1H-benzotriazoyloxy)]-3-(1H-1,2,4-triazol-1-ylmethyl)acetophenone] as the compound, how does the IC50 read?
**A.** The IC50 was 1.2 nM.

**Q.** How did the IC50 turn out when Clc1ccc(Oc2ccc3[nH]nnc3c2)c(Cn2cncn2)c1 [Example 40, 5-[4-chloro-2-(1H-1,2,4-triazol-1-ylmethyl)phenoxy]-1H-benzotriazole] was run?
**A.** The IC50 was 0.6 nM.

**Q.** How did the IC50 turn out when Cn1cnc2ccc(Oc3ccc(Cl)cc3Cn3cncn3)cc21 [Example 68, 6-[4-chloro-2-(1H-1,2,4-triazol-1-ylmethyl)phenoxy]-1-methylbenzimidazole] was run?
**A.** Its IC50 is 2.6 nM.

**Q.** With Cn1nnc2ccc(Sc3ccc(Cl)cc3Cn3cncn3)cc21 [Example 71, 6-[4-chloro-2-(1H-1,2,4-triazol-1-ylmethyl)phenylthio]-1-methyl-1H-benzotriazole] as the compound, how does the IC50 read?
**A.** The IC50 was 1.2 nM.

**Q.** Which IC50 does the source give for CCOC(=O)c1ccc(Oc2ccc3nnn(C)c3c2)c(Cn2cncn2)c1 [Example 55, 4-[6-(1-methyl-1H-benzotriazoyloxy) ]-3-(1H-1,2,4-triazol-1-ylmethyl)benzoic acid ethyl ester] here?
**A.** The IC50 was 1.4 nM.

**Q.** Which IC50 does the source give for Cn1nnc2ccc(Oc3cc(Cl)ccc3Cn3cncn3)cc21 [Example 49, 6-[5-Chloro-2-(1H-1,2,4-triazol-1-ylmethyl)phenoxy]-1-methyl-1H-benzotriazole] here?
**A.** The IC50 was 1.5 nM.

**Q.** How did the IC50 turn out when Clc1ccc(Oc2ccc3ccccc3c2)c(Cn2ccnc2)c1 [Example 6, 1-[5-Chloro-2-(2-naphthyloxy)benzyl]-1H-imidazole] was run?
**A.** Its IC50 is 9.9 nM.

**Q.** C=Cc1ccc(Oc2ccc3nnn(C)c3c2)c(Cn2cncn2)c1 [Example 56] was tested. Which IC50 did it give?
**A.** The IC50 was 0.3 nM.

— patent US5587392A, “Azolyl methyl phenyl derivatives having aromatase inhibitory activity” (Mochida Pharmaceutical Co., Ltd., priority 1994, dated 1996)
